Measured values published in US9795585B2, “Methods of using L-butylphthalide for the prevention and treatment of cerebral ischemia disease” (priority 2004, dated 2017).
Values joined by “and” are separate entries in the source; they are usually repeats but may differ in a detail not shown here. Equal entries are not always repeated.

Columns and labels:
[1] = test system: cerebral injury-induced cerebral ischemia in rats; experiment: Neural symptoms induced by cerebral injury in rats; assay type: in vivo, male Wistar rats; conditions: 50 mg/kg oral 5 minutes after cerebral injury; scored after 24 hours; vs vehicle control
Experimental: Experimental Animals: male Wistar rats
Experimental Methods: Cerebral injury in rats was caused by allowing a cone-shaped metal object weighing 220 g to freely fall from a position of 30 cm height and to strike the skull cap behind the left coronal suture. dl-, d-, and l-NBP (50 mg/kg) and the vehicle (control group) were orally administered after 5 minutes, and the behavioral changes were scored after 24 hours.

[2] = test system: permanent cerebral ischemic rats; experiment: Behavioral disorder and cerebral infarct area in permanent cerebral ischemic rats (FeCl3 on middle cerebral artery); assay type: in vivo, Wistar rats; conditions: for reduction of cerebral infarct area / neurological deficit scores (effect in words) / ED40 (cerebral infarct area): vs model control group; for decrease of neurological deficit scores / ED30 (neurological deficit scores): i.v., 24 hours after administration; for neurological deficit scores (effect in words): intravenous injection
Experimental: Experimental Animal: The same as Example 1. Experimental Equipments: COOLPIX955 digital camera, 722 grating spectroscope, XHF-1 high-speed disperser, YKH-II liquid high-speed mixer, WZ-50C2 micro infusion pump. Experimental Methods: Wistar rats were anesthetized by intraperitoneally injecting 12% chloral hydrate in 350 mg/kg, and fixed in lateral decubitus position. The skin at the midpoint on the line from exterior auditory canal to canthus was cut. The muscle was separated layer by layer to expose zygomatic arch and the squamous part of temporal bone. The zygomatic arch was scissored and then placed under an operating microscope. A window of 2 mm diameter was drilled by using a dentistry drill at a position of 2 mm under the anterior joint between zygomatic arch and the squamous part of temporal bone, so as to expose the middle cerebral artery. A little piece of filter paper was applied onto the middle artery, and 10 μl of 50% FeCl3 aqueous solution was dripped onto the filter paper. The filter paper was removed after 30 min, and washed with physiological brine. Two to three drops of penicillin (1.6×10^5 U/mL) were added so as to prevent infection of the cut. Then the cut was sutured layer by layer.

[3] = test system: cerebral ischemia-reperfusion rats; experiment: Behavioral disorder and cerebral infarct area in cerebral ischemia-reperfusion rats (MCAO by nylon suture, 1.5 h); assay type: in vivo, male Wistar rats; conditions: for neurological deficit scores (effect in words) / potency on neurological deficit scores compared among l, dl and d-NBP: 24 hours after intravenous injection; for reduction of cerebral infarct area / ED50 (cerebral infarct area): i.v., vs model control group; for cerebral infarct area (effect in words): intravenous administration, effect increases with dose
From the text: Experimental Animal: The same as Example 1
Experimental Equipments: The same as Example 7
Experimental Methods: The rats were anesthetized, and fixed in lateral decubitus position. Under the operating microscope, a midline neck skin incision was made to expose the left common cartotid artery. The surrounding nerves and fascia from the bifurcation of common carotid artery to the vascular of basis cranii were removed.
The internal carotid artery was then separated and carefully separated free from vagus nerve. Pterygopalatine artery was ligated at the root of the internal carotid artery. A 6# needle for injection containing 3# nylon suture (diameter of 0.285 mm) was punctured into the free end of the external carotid artery, advancing the nylon suture into the blood vascular. The needle was carefully withdrawn, and the nylon suture was guided into the internal carotid artery from the distal end of the external carotid artery up till to Willis ring, so as to effectively block the middle cerebral artery.
Depending on the body weight, the distance from the inserted nylon suture to the bifurcation of common carotid artery was 18 to 20 mm. The free end of the external carotid artery and the nylon suture therein were ligated together, in order to prevent bleeding. The muscle and the skin were then sutured layer by layer, and penicillin was dropped to prevent infection. To effectively block the middle cerebral artery, the tip of the nylon suture was made round by burning with the flame, and coated with 0.1% of poly-L-lysine. The nylon suture was baked in a 60° C. oven for 1 hour.
Due to the ability of poly-L-lysine to binding the cell and the protein to the plastic surface, and thus allow the negative charged nylon suture changing into a positive charged one and attract the anion ionic part of the endothelial cell, the nylon suture was closely bond to the endothelial surface, so as to prevent the leakage of the blood from the surrounding of the suture. Only the internal carotoid artery was separated from the animals of pseudo-operation group.
At 1.5 hours after the initiation of MCAO, the nylon suture within the lumen of the internal carotoid artery was carefully withdrawn, and the internal carotoid artery was allowed to reperfusion. The rats were then placed back into the cage.

normal rats = assay type: in vivo, Male wistar rats; conditions: 15 and 30 mg/kg oral; for cerebral blood flow rate in normal rats: 30 minutes after administration
Experimental: Experimental Animals: Male wistar rats.
Experimental Equipments: SXP operating microscope, 62TZ-V model high frequency electrotome, solid positioner, Diamond Electro-Tech chemical microsensor 1231, two channel physiological parameter recorder.
Experimental Methods: • (1) dl-, d-, and l-NBP (15 and 30 mg/kg) and the vehicle were orally administered to the normal rats, and the changes of cerebral blood flow at different time after the administration were measured. • (2) ligation of cerebral artery was conducted on rats according to the method of Tamura. Oral administration was performed at 10 min after the operation. The rats were divided into 9 groups, which were normal group, pseudo-operation group, vehicle control group, and groups of dl-, d-, and l-NBP (15 and 30 mg/kg).

[4] = test system: ischemic brain of decapitated mice; experiment: Ischemic cerebral metabolism of energy induced by decapitation of mice; assay type: in vivo, KunMing mice; conditions: NBP 50 and 100 mg/kg oral, sodium Phenobarbital 225 mg/kg ip.; decapitated 30 minutes after administration; 15 seconds ischemia; vs control group
Experimental: Experimental Animals: KunMing mice.
Test drug: injectable L-butylphthalide was formulated into an emulsion with Tween-80.
Experimental Methods: KunMing mice of 10 to 22 g were divided into 8 groups with 10 mice per group. dl-, d-, and l-NBP (50 and 100 mg/kg/d), sodium Phenobarbital (225 mg/kg ip.) and the vehicle were orally administered. Thirty minutes after administration, the mice were decapitated.
The time between the decapitation and homogenation, which was 15 seconds, was regarded as cerebral ischemic time. Centrifugation and isolation were conducted by the method of Folbergrova, and the contents of lactic acid, ATP and PCr were determined by enzymological method.

[5] = test system: cerebral edema induced by cerebral artery ligation in rats; experiment: Cerebral edema induced by ligation of right middle cerebral artery; assay type: in vivo, male Wistar rats
Experimental: Experimental Animals: the same as Example 1. Experimental Equipments: Oxygen analyzer. Experimental Methods: Cerebral edema was induced by the ligation of right middle cerebral artery of rats. After 15 minutes, dl-, d-, and l-NBP (40 and 80 mg/kg) were orally administered. The rats were sacrificed after 24 hours. The forebrain was removed, and the cerebral hemispheres on the left and right side were weighed. Dry weight was obtained by baking for 24 hours under 100° C. The weight of water in the brain tissue was thus calculated by subtracting of dry weight from wet weight. Then, the tissues was nitrified for 4 hours, and pH was adjusted by using HCl. Next, the ion selective electrode was connected onto the oxygen analyzer, and the concentrations of Na^+ and K^+ in the brain tissue were measured.

[6] = 40 and 80 mg/kg oral 15 minutes after ligation, sacrificed after 24 hours

Row | Structure (SMILES) | neural symptoms (behavioral changes scored) [1] | reduction of cerebral infarct area ([2]; first of three doses) | decrease of neurological deficit scores ([2]; high dose) | ED30 (neurological deficit scores) [2] | neurological deficit scores (effect in words) [2] | decrease of neurological deficit scores ([2]; low dose) | decrease of neurological deficit scores ([2]; moderate dose) | reduction of cerebral infarct area ([2]; second of three doses) | reduction of cerebral infarct area ([2]; third of three doses) | ED40 (cerebral infarct area) [2] | neurological deficit scores (effect in words) [3] | potency on neurological deficit scores compared among l, dl and d-NBP [3] | reduction of cerebral infarct area ([3]; first of three doses) | ED50 (cerebral infarct area) [3] | cerebral infarct area (effect in words) [3] | reduction of cerebral infarct area ([3]; second of three doses) | reduction of cerebral infarct area ([3]; third of three doses) | cerebral blood flow rate in normal rats (normal rats) | content of ATP in the brain [4] | content of PCr in the brain [4] | further results
1 | CCCCC1OC(=O)c2ccccc21 (racemic) [dl-NBP, butylphthalide] | no significant effect | 29.2% | 37.5% | 7.2 mg/kg | improvement | 15.6% | 21.9% | 35.2% | 44.4% | 7.1 mg/kg | improvement | no significant difference | 37.9% and 34.8% | 5.5 mg/kg and 5.7 mg/kg | significantly reduce | 48.5% and 46.5% | 59.2% and 60.9% | no such effects | no such significant effect | no such significant effect | cerebral infarct area (effect in words) ([2]; 2.5 mg/kg, tendency of reducing): not significant; content of lactic acid in the brain [4]: no such significant effect; content of Na+ in the brain ([5]; 80 mg/kg oral, decrease seen): no statistical significance; content of water in the brain ([5]; 80 mg/kg oral, decrease seen): no statistical significance; content of K+ in the brain ([5]; 80 mg/kg oral, increase seen): no statistical significance; content of K+ in the brain [5, 6]: no significant effect; content of Na+ in the brain [5, 6]: no significant effect; content of water in the brain [5, 6]: no significant effect
2 | CCCC[C@@H]1OC(=O)c2ccccc21 [l-NBP, L-butylphthalide] | significantly reduced | 38.4% | 35.9% | 6.2 mg/kg | improvement | 17.2% | 29.7% | 41.9% | 50.7% | 3.3 mg/kg | improvement | no significant difference | 40.8% | 3.8 mg/kg | significantly reduce | 57.0% | 68.5% | significantly increased | increased | increased | cerebral infarct area (effect in words) ([2]; 5 and 10 mg/kg, effect increased with dose): significantly reduce; effect on cerebral infarct area relative to d-NBP ([2]; as calculated by converting into ED50): about 3.1 times; cerebral infarct area (effect in words) ([2]; dose not given): significantly reduce; effect on cerebral infarct area relative to d-NBP ([3]; as calculated by ED50): about 1.5 times; time after administration till which cerebral blood flow rate was maintained at a relative high level (normal rats; normal rats): 50 min; content of lactic acid in the brain [4]: significantly decreased; content of K+ in the brain [5, 6]: increase; content of Na+ in the brain [5, 6]: significantly decrease; content of water in the brain [5, 6]: significantly decrease
